Measurements taken from the CheMixHub viscosity set.
“And” between values parts separate entries of the source, which are not always exact repeats. Equal values may be shown once. ± gives the uncertainty stated by the source.

Legend:
[1] = xn = mol fraction of the nth substance listed; settings: 101 kPa

CC(=O)c1ccc(C)cc1
303.15 K
Settings | viscosity [mPa·s]
100 kPa | 1.581 ± 0.021
101 kPa | 1.581 ± 0.021

CCCCC(CC)COP(=O)(O)OCC(CC)CCCC (centres undefined)
101 kPa
Settings | viscosity [mPa·s]
303.15 K | 20.25 ± 0.81
313.15 K | 13.35 ± 0.54

CCCC[n+]1cc[nH]c1.O=S(=O)([N-]S(=O)(=O)C(F)(F)F)C(F)(F)F
Settings | viscosity [mPa·s]
313.2 K, 101.33 kPa | 47.18 ± 5.1

CCCCCCn1cc[n+](C)c1.F[P-](F)(F)(F)(F)F
101 kPa
Settings | viscosity [mPa·s]
303.15 K | 497.1 ± 150
308.15 K | 364.4 ± 110
313.15 K | 273 ± 83
318.15 K | 208.5 ± 63

CCC1(C)OC1C#N (centres undefined)
101 kPa
Settings | viscosity [mPa·s]
293.15 K | 1.485 ± 0.039
298.15 K | 1.34 ± 0.04
303.15 K | 1.19 ± 0.03
313.15 K | 0.98 ± 0.03
323.15 K | 0.84 ± 0.02

OCC1CC1
101 kPa
Settings | viscosity [mPa·s]
293.15 K | 3.985 ± 0.085
298.15 K | 3.447 ± 0.074
303.15 K | 3.002 ± 0.064
308.15 K | 2.629 ± 0.056
313.15 K | 2.315 ± 0.05
323.15 K | 1.819 ± 0.039

CC1CCC(=O)O1 (centres undefined)
101 kPa
Settings | viscosity [mPa·s]
298.15 K | 1.873 ± 0.016
303.15 K | 1.72 ± 0.015
308.15 K | 1.586 ± 0.014
313.15 K | 1.458 ± 0.013
318.15 K | 1.364 ± 0.012

CCCCOCCOCCOCCO
101 kPa
Settings | viscosity [mPa·s]
293.15 K | 9.282 ± 0.055
303.15 K | 6.528 ± 0.04
313.15 K | 4.979 ± 0.032
323.15 K | 3.769 ± 0.024

N
Settings | viscosity [mPa·s]
293.15 K, 101 kPa | 0.144 ± 0.004

Cc1cccc(O)c1
Settings | viscosity
293.15 K, 101 kPa | 16.9 ± 0.28 mPa·s
298 K, 101.3 kPa | 13.19 ± 0.26 mPa·s
303 K, 101.3 kPa | 9.877 ± 0.17 mPa·s
308 K, 101.3 kPa | 7.599 ± 0.1 mPa·s
308.15 K, 101.33 kPa | 7.635 ± 0.16 mPa·s
313 K, 101.3 kPa | 6.146 ± 0.065 mPa·s
313.15 K, 101 kPa | 5.925 ± 0.064 mPa·s and 6.542 ± 0.18 mPa·s
313.15 K, 101.3 kPa | 6.252 ± 0.075 mPa·s
313.15 K, 101.33 kPa | 6.18 mPa·s
318 K, 101.3 kPa | 4.968 ± 0.057 mPa·s
318.15 K, 101 kPa | 5.373 ± 0.69 mPa·s and 5.373 ± 0.46 mPa·s
323.15 K, 101.3 kPa | 4.111 ± 0.05 mPa·s

CCCCCCCCCCCC[N+](C)(C)Cc1ccccc1.O=S(=O)([N-]S(=O)(=O)C(F)(F)F)C(F)(F)F
101 kPa
Settings | viscosity [mPa·s]
298.15 K | 1425 ± 200
303.15 K | 974.3 ± 130
308.15 K | 682.7 ± 88
313.15 K | 484.8 ± 59
318.15 K | 351.1 ± 41
323.15 K | 260.6 ± 29

C=Cn1cc[n+](CC(N)=O)c1.O=S(=O)([N-]S(=O)(=O)C(F)(F)F)C(F)(F)F
100 kPa
Settings | viscosity [mPa·s]
298.15 K | 280.7 ± 58
303.15 K | 140.3 ± 28
308.15 K | 71.51 ± 14
313.15 K | 35.3 ± 7.1
318.15 K | 19.85 ± 4
323.15 K | 12.53 ± 2.5

CCCCCCCCCCCCN
Settings | viscosity [mPa·s]
303.15 K, 101 kPa | 2.658 ± 0.029

C[N+](=O)[O-] + CCCCO
viscosity [mPa·s], [1]
Settings | 298.15 K | 303.15 K | 308.15 K | 313.15 K | 318.15 K | 323.15 K
x1 = 0.1 | – | 1.815 ± 0.015 | 1.607 ± 0.012 | 1.438 ± 0.011 | 1.283 ± 0.01 | 1.156 ± 0.008
x1 = 0.1589 | 1.93 ± 0.19 | – | – | – | – | –
x1 = 0.2 | – | 1.448 ± 0.012 | 1.305 ± 0.01 | 1.172 ± 0.009 | 1.067 ± 0.008 | 0.968 ± 0.007
x1 = 0.299 | 1.499 ± 0.15 | – | – | – | – | –
x1 = 0.2999 | – | 1.218 ± 0.01 | 1.107 ± 0.009 | 0.996 ± 0.008 | 0.906 ± 0.007 | 0.828 ± 0.007
x1 = 0.4 | – | 1.052 ± 0.009 | 0.955 ± 0.008 | 0.868 ± 0.007 | 0.8 ± 0.007 | 0.73 ± 0.006
x1 = 0.4222 | 1.172 ± 0.12 | – | – | – | – | –
x1 = 0.5016 | – | 0.918 ± 0.008 | 0.834 ± 0.008 | 0.762 ± 0.007 | 0.7 ± 0.006 | 0.646 ± 0.006
x1 = 0.5319 | 0.9681 ± 0.098 | – | – | – | – | –
x1 = 0.6017 | – | 0.802 ± 0.008 | 0.73 ± 0.007 | 0.672 ± 0.007 | 0.622 ± 0.006 | 0.578 ± 0.006
x1 = 0.6302 | 0.8288 ± 0.084 | – | – | – | – | –
x1 = 0.6991 | – | 0.706 ± 0.007 | 0.654 ± 0.007 | 0.605 ± 0.006 | 0.565 ± 0.006 | 0.527 ± 0.006
x1 = 0.7188 | 0.7435 ± 0.075 | – | – | – | – | –
x1 = 0.7993 | 0.6894 ± 0.069 | – | – | – | – | –
x1 = 0.8059 | – | 0.624 ± 0.007 | 0.583 ± 0.007 | 0.549 ± 0.006 | 0.518 ± 0.006 | 0.488 ± 0.006
x1 = 0.8718 | 0.6557 ± 0.066 | – | – | – | – | –
x1 = 0.903 | – | 0.586 ± 0.007 | 0.553 ± 0.007 | 0.524 ± 0.006 | 0.499 ± 0.006 | 0.474 ± 0.006
x1 = 0.9387 | 0.6378 ± 0.064 | – | – | – | – | –
